US20220315554A1, “COMPOUNDS COMPRISING A […] LIGAND AND USE THEREOF” (priority 2019, published 2022)
Numbered stars: 1 amine (or outer) side, 2 acyl side, 3 side chain; on linkers, the order of the positions; unused ones are H or OH. Bridge positions count the residues as written; N and C are the ends. Square brackets hold non-standard residues; d marks the D form. Peptide text beside a SMILES is read from it. * marks the point of attachment. X5 = O=C(O)CN1CCN(CC(=O)O)CCN(CC(=O)NCCSCc2cc(CSC[C@@H](CO)N[*:2])cc(C[*:1])c2)CCN(CC(=O)O)CC1; mXylylene = c1cc(C[*:1])cc(C[*:2])c1; Hexanoyl = CCCCCC(=O)*

Experiments:
[1] = molecular target: T1, FAP-expressing human WI-38 fibroblasts (Homo sapiens, UniProt Q12884); experiment: Competitive FACS binding assay; conditions: pIC50 Category (FACS), competition with 3 nM Cy5-labeled compound, 4° C., 1 hour
T1 construct: FAP-expressing human WI-38 fibroblasts (ECACC) were cultured in EMEM; host or cells: WI-38 human fibroblasts
T1 sequence (Q12884 1-760): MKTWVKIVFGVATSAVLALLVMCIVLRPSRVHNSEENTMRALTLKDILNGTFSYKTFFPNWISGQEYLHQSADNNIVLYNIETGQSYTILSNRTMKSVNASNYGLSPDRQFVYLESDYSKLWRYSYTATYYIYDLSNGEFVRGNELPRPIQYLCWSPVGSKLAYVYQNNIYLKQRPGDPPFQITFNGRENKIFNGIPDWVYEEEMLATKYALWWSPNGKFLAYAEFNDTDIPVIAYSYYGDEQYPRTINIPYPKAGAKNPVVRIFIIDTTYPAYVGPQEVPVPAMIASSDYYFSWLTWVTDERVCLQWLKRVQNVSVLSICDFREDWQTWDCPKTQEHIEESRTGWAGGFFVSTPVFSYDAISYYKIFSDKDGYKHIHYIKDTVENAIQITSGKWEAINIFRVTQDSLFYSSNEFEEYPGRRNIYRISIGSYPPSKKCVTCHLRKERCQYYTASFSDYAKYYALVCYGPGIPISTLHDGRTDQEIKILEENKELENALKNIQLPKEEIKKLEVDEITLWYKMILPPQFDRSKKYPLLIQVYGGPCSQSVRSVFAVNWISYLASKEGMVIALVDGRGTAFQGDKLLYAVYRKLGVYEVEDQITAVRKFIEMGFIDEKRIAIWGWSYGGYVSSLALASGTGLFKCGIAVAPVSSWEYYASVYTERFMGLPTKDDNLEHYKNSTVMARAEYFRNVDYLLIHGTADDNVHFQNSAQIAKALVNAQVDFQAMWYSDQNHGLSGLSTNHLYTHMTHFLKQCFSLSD
Method: Cells were analyzed in an Attune NxT flow cytometer. […]

Human recombinant FAP = molecular target: T2, Human recombinant FAP (Homo sapiens, UniProt Q12884); experiment: FRET-based FAP protease activity assay; format: biochemical; parameters: purchased R&D systems 3715-SE; conditions: pIC50 Category (Activity), FRET substrate, 37° C.
T2 sequence (Q12884 1-760): T1 sequence (Q12884 1-760)

Structure (SMILES)	IC50 ([1]; WI-38 fibroblasts)	IC50 (Human recombinant FAP; recombinant human FAP)	IC50 [1]	IC50 (Human recombinant FAP)
CSCC[C@H](NC(C)=O)C(=O)N[C@H]1CSCc2cccc(c2)CSC[C@@H](C(=O)N[C@@H](CC(=O)O)C(=O)N[C@@H](Cc2c[nH]cn2)C(=O)N[C@@H](Cc2ccccc2)C(=O)N[C@@H](CCCNC(=N)N)C(=O)N[C@@H](CC(=O)O)C(N)=O)NC(=O)[C@H](Cc2ccccc2)NC(=O)[C@@H](CCC(=O)O)NC(=O)[C@H]([C@@H](C)O)NC(=O)[C@@H]2CCCN2C(=O)[C@@H]2CCCN2C1=O [3BP-3179, Ac-Met-[Cys(3MeBn)-Pro-Pro-Thr-glu-Phe-Cys]-Asp-His-Phe-Arg-Asp-NH2] (Ac-MCPPT[dE]FCDHFRD-NH2; linker 2-8 via mXylylene)	10 to 79.4 nM	100 to 794 nM	–	–
CSCC[C@H](NC(C)=O)C(=O)N[C@H]1CSCc2cccc(c2)CSC[C@@H](C(=O)N[C@@H](C)C(=O)N[C@@H](Cc2c[nH]cn2)C(=O)N[C@@H](Cc2ccccc2)C(=O)N[C@@H](CCCNC(=N)N)C(=O)N[C@@H](CC(=O)O)C(N)=O)NC(=O)[C@H](Cc2ccccc2)NC(=O)[C@H](CCC(=O)O)NC(=O)[C@H]([C@@H](C)O)NC(=O)[C@@H]2CCCN2C(=O)[C@@H]2CCCN2C1=O [3BP-3194, Ac-Met-[Cys(3MeBn)-Pro-Pro-Thr-Glu-Phe-Cys]-Ala-His-Phe-Arg-Asp-NH2] (Ac-MCPPTEFCAHFRD-NH2; linker 2-8 via mXylylene)	10 to 79.4 nM	10 to 79.4 nM	–	–
CCCCCC(=O)N[C@H]1CSCc2cc(CSCCNC(=O)CCOCCOCCOCCOCCOCCOCCNC(=O)CN(CCN(CCN(CC(=O)O)CC(=O)O)CC(=O)O)CC(=O)O)cc(c2)CSC[C@@H](C(=O)O)NC(=O)[C@H](Cc2ccccc2)NC(=O)[C@H](CCC(N)=O)NC(=O)[C@H]([C@@H](C)O)NC(=O)[C@@H]2CCCN2C(=O)[C@@H]2CCCN2C1=O [3BP-4353, Hex-[Cys-(tMeBn(DTPA2-PEG6-AET))-Pro-Pro-Thr-Gln-Phe-Cys]-OH]	–	–	10 to 79.4 nM	10 to 79.4 nM
CCCCCC(=O)N[C@H]1CSCc2cc(CSCCNC(=O)CCOCCOCCOCCOCCOCCOCCNC(=O)C(CNCCN)CNCCN)cc(c2)CSC[C@@H](C(=O)O)NC(=O)[C@H](Cc2ccccc2)NC(=O)[C@H](CCC(N)=O)NC(=O)[C@H]([C@@H](C)O)NC(=O)[C@@H]2CCCN2C(=O)[C@@H]2CCCN2C1=O [3BP-4300, Hex-[Cys-(tMeBn(N4Ac-PEG6-AET))-Pro-Pro-Thr-Gln-Phe-Cys]-OH]	–	–	10 to 79.4 nM	< 10 nM
CCCCCC(=O)N[C@H]1CSCc2cccc(c2)CSC[C@@H](C(N)=O)NC(=O)[C@H](C)NC(=O)[C@H](CCC(=O)O)NC(=O)[C@H]([C@@H](C)O)NC(=O)[C@@H]2CCCN2C(=O)[C@@H]2CCCN2C1=O [3BP-3350, Hex-[Cys(3MeBn)-Pro-Pro-Thr-Glu-Ala-Cys]-NH2] (Hexanoyl-CPPTEAC-NH2; linker 1-7 via mXylylene)	> 1000 nM	100 to 794 nM	–	–
CCCCCC(=O)N[C@H]1CSCc2cc(CSCCNC(=O)CCCC(=O)Nc3ccc(C[C@H](CN(CCN(CC(=O)O)CC(=O)O)CC(=O)O)N(CC(=O)O)CC(=O)O)cc3)cc(c2)CSC[C@@H](C(=O)O)NC(=O)[C@H](Cc2ccccc2)NC(=O)[C@H](CCC(N)=O)NC(=O)[C@H]([C@@H](C)O)NC(=O)[C@@H]2CCCN2C(=O)[C@@H]2CCCN2C1=O [3BP-4366, Hex-[Cys-(tMeBn(DTPABzl-Glutar-AET))-Pro-Pro-Thr-Gln-Phe-Cys]-OH]	–	–	100 to 794 nM	100 to 794 nM
CCCCCC(=O)N[C@H]1CSCc2cccc(c2)CSC[C@@H](C(N)=O)NC(=O)[C@H](Cc2ccccc2)NC(=O)[C@H](CCC(=O)O)NC(=O)[C@H]([C@@H](C)O)NC(=O)[C@@H]2CCCN2C(=O)CNC1=O [3BP-3345, Hex-[Cys(3MeBn)-Gly-Pro-Thr-Glu-Phe-Cys]-NH2] (Hexanoyl-CGPTEFC-NH2; linker 1-7 via mXylylene)	100 to 794 nM	10 to 79.4 nM	–	–
CCCCCC(=O)N[C@@H]1CSCc2cc(CSCCNC(=O)CN3CCN(CC(=O)O)CCN(CC(=O)O)CCN(CC(=O)O)CC3)cc(c2)CSC[C@H](C(=O)O)NC(=O)[C@H](Cc2ccccc2)NC(=O)[C@H](CCC(N)=O)NC(=O)[C@H]([C@@H](C)O)NC(=O)[C@@H]2CCCN2C(=O)[C@@H]2CCCN2C1=O [3BP-4110, Hex-[D-Cys-(tMeBn(DOTA-AET))-Pro-Pro-Thr-Gln-Phe-D-Cys]-OH]	–	–	10 to 79.4 nM	10 to 79.4 nM
CCCCCC(=O)N[C@H]1CSCc2cc(CSCCNC(=O)CN3CCN4CCN5CCN(CC3)CC(=O)[O][Lu]([O]C(=O)C4)[O]C(=O)C5)cc(c2)CSC[C@@H](C(=O)N[C@@H](CC(=O)O)C(=O)NCCCC(=O)N[C@@H](CCCNC(=N)N)C(=O)NCCCOCCOCCOCCCNC(=O)CCC(=O)NCCCOCCOCCOCCCNC(=O)CCC(=O)NCCCOCCOCCOCCCNC(=O)CCC(=O)N[C@@H](CCCCNC(=O)c2ccc(-c3c4ccc(=N)c(S(=O)(=O)O)c-4oc4c(S(=O)(=O)O)c(N)ccc34)c(C(=O)O)c2)C(N)=O)NC[C@H](Cc2ccccc2)NC(=O)[C@H](CCC(N)=O)NC(=O)C([C@@H](C)O)NC(=O)[C@@H]2CCCN2C(=O)[C@@H]2CCCC2C1=O (stereo partly drawn) [3BP-4373, Hex-[Cys(tMeBn(LuDOTA-AET))-Pro-Pro-Thr-Gln-Phe-Cys]-Asp-Gab-Arg-Ttds-Ttds-Ttds-Lys(AF488)-NH2]	–	–	10 to 79.4 nM	< 10 nM
CCCCCC(=O)N[C@H]1CSCc2cccc(c2)CSC[C@@H](C(=O)N[C@@H](CC(=O)O)C(=O)N[C@@H](CCCNC(=N)N)C(=O)O)NC(=O)[C@H](Cc2ccccc2)NC(=O)[C@H](CCC(=O)O)NC(=O)[C@H]([C@@H](C)O)NC(=O)[C@@H]2CCCN2C(=O)[C@@H]2CCCN2C1=O [3BP-3299, Hex-[Cys(3MeBn)-Pro-Pro-Thr-Glu-Phe-Cys]-Asp-Arg-NH2] (Hexanoyl-CPPTEFCDR-OH; linker 1-7 via mXylylene)	< 10 nM	< 10 nM	–	–
CCCC(NC(=O)CCC(=O)NCCCOCCOCCOCCCNC(=O)CN1CCN(CC(=O)O)CCN(CC(=O)O)CCN(CC(=O)O)CC1)C(=O)N[C@H]1CSCc2cc(CSCCNC(=O)CN3CCN(CC(=O)O)CCN(CC(=O)O)CCN(CC(=O)O)CC3)cc(c2)CSC[C@@H](C(=O)N[C@@H](CC(=O)O)C(=O)NCCCOCCOCCOCCCNC(=O)CCC(=O)N[C@@H](CCCCNC(=O)CN2CCN(CC(=O)O)CCN(CC(=O)O)CCN(CC(=O)O)CC2)C(N)=O)NC(=O)[C@H](Cc2ccccc2)NC(=O)[C@H](CCC(N)=O)NC(=O)[C@H]([C@@H](C)O)NC(=O)[C@@H]2CCCN2C(=O)[C@@H]2CCCN2C1=O (stereo partly drawn) [3BP-4392, DOTA-Ttds-Nle-[Cys(tMeBn(DOTA-AET))-Pro-Pro-Thr-Gln-Phe-Cys]-Asp-Ttds-Lys(DOTA)-NH2]	–	–	10 to 79.4 nM	10 to 79.4 nM
CCCCCC(=O)N[C@H]1CSCc2cc(CSCCNC(=O)CN3CCN(CC(=O)O)CCN(CC(=O)O)CCN(CC(=O)O)CC3)cc(c2)CSC[C@@H](CO)NC(=O)[C@H](Cc2ccccc2)NC(=O)[C@H](CCC(N)=O)NC(=O)[C@H]([C@@H](C)O)NC(=O)[C@@H]2CCCN2C(=O)[C@@H]2CCCN2C1=O [3BP-3762, Hex-[Cys(tMeBn(DOTA-AET))-Pro-Pro-Thr-Gln-Phe-Cysol]] (Hexanoyl-CPPTQF; linker 1-C via X5)	–	–	> 1000 nM	100 to 794 nM
CCCCCC(=O)N[C@H]1CSCc2cc(cc(CN3CCN(C(=O)CN4CCN5CCN6CCN(CC4)CC(=O)[O][In]([O]C(=O)C6)[O]C(=O)C5)CC3)c2)CSC[C@@H](C(=O)O)NC(=O)[C@H](Cc2ccccc2)NC(=O)[C@H](CCC(N)=O)NC(=O)[C@H]([C@@H](C)O)NC(=O)[C@@H]2CCCN2C(=O)[C@@H]2CCCN2C1=O [3BP-3770, Hex-[Cys(tMeBn(InDOTA-PP))-Pro-Pro-Thr-Gln-Phe-Cys]-OH]	–	–	< 10 nM	< 10 nM
